Literature values in patent US20210307321A1, “CAPSULE SUSPENSIONS WITH AGROCHEMICAL ACTIVE INGREDIENTS” (priority 2018, published 2021).

Structure (SMILES): O=C(Nc1ccc(F)cc1F)c1cccnc1Oc1cccc(C(F)(F)F)c1 [Diflufenican, 2′,4′-Difluoro-2-(a,a,a-trifluoro-m-tolyloxy)nicotinanilide]
- solubility in non-water miscible solvents: very low solubility
